# Source: US20160374944A1, “COMPOSITIONS AND METHODS FOR TREATING AND PREVENTING CANCER BY TARGETING AND INHIBITING CANCER STEM CELLS” (priority 2011, published 2016)
# Tested on: Gli transcriptional activity in pancreatic CSCs
# Assay: Gli-responsive GFP/firefly luciferase reporter
# Assay type: cell-based, human
# Protocol: (A) Pancreatic CSCs were treated with rottlerin (0-1 μM) for 24 h. The expression of Patched-1, Smo and Gli-2 was measured by qRT-PCR. […] (B) Pancreatic CSCs were transduced with Gli-responsive GFP/firefly luciferase viral particles (pGreen Fire1-Gli with EF1, System Biosciences). After transduction, culture medium was replaced and CSCs were treated with rottlerin (0-2 μM) for 24 h. Gli-responsive reporter activity was measured using a luciferase assay (Promega Corporation).
# FIG. 40A and FIG. 40C are graphs and photographs showing the inhibition of components of sonic hedgehog pathway, Gli transcription and nuclear translocation by EGCG. (A) Inhibition of components of sonic hedgehog pathway and Gli transcription. Pancreatic CSCs were treated with EGCG (0-60 μM) for 36 h. The expression of Smothened (Smo), patched 1 (PTCH1), patched 2 (PTCH2), was measured by q-RT-PCR. […] (B) Inhibition of Gli1 and Gli2 expression and Gli transcription. Pancreatic CSCs were treated with EGCG (0-60 μM) for 36 h. The expression of Gli1 and Gli2 was measured by q-RT-PCR. Gli reporter activity. CSCs were transduced with Gli-responsive GFP/firefly luciferase viral particles (pGreen Fire1-Gli with EF1, System Biosciences). After transduction, culture medium was replaced and CSCs were treated with EGCG (0-60 μM) for 24 h. Gli-responsive reporter activity was measured by luciferase assay (Promega Corporation). […] Stained cells were mounted and visualized under a fluorescence microscope. Blue fluorescence of DAPI was changed to red color for a better contrast.
# FIG. 42A and FIG. 42B show graphs showing quercetin synergizes with EGCG to inhibit self-renewal capacity, invasion, migration, and TCF/LEF and Gli transcriptional activities in pancreatic CSCs. […] Cell viability was measured by trypan blue assay. […] At the end of incubation period, colonies were counted. […] Cells invaded to the lower chambered were fixed with methanol, stained with crystal violet and counted. […] Cells migrated to the lower chambered were fixed with methanol, stained with crystal violet and counted. […] Apoptosis was measured by TUNEL assay. […]
SMILES,"Gli transcriptional activity (EGCG 0-60 μM, 24 h, luciferase assay)","Gli transcriptional activity (EGCG 40 μM with or without quercetin 20 μM, 48 hrs, luciferase)","Gli transcriptional activity (rottlerin 0-2 μM, 24 h, luciferase assay)"
"O=C(O[C@@H]1Cc2c(O)cc(O)cc2O[C@@H]1c1cc(O)c(O)c(O)c1)c1cc(O)c(O)c(O)c1 [EGCG, epigallocatechin gallate]",inhibited Gli transcriptional activity in a dose-dependent manner,inhibited,–
CC(=O)c1c(O)c(C)c(O)c(Cc2c(O)c3c(c(C(=O)/C=C/c4ccccc4)c2O)OC(C)(C)C=C3)c1O [rottlerin],–,–,inhibited Gli transcriptional activity in a dose-dependent manner
